Assay results: EP3892734B1, “SCREENING METHODS AND THERAPEUTIC APPLICATIONS BASED ON BACTERIAL MOTILITY INHIBITION” (Ludwig-Maximilians-Universität München, priority 2020, dated 2021)
Entries after “also recorded” stand apart in the source; their conditions may differ.

Tests used:
H. pylori N6 = test: MIC/MBC determination in broth culture; format: cell-based, Helicobacter pylori; settings: for classical antibacterial activity (growth / metabolic inhibition) against H. pylori: result in words
Method: In order to distinguish compounds having anti-flagellar activity from compounds having classical antibiotic effects (i.e., bacteriostatic and/or bactericidal effects), the test compounds were additionally subjected to MIC/MBC testing. Helicobacter pylori were grown in liquid culture by harvesting bacteria from overnight-grown plates into brain-heart infusion medium (BHI, Oxoid) with 3% yeast extract and 5% horse serum, added to an initial inoculum of OD600 = 0.05. 10 ml of this bacterial suspension were incubated as a preculture in a 50 ml Falcon tube with lid ajar inside of an air-tight incubation jar and a microaerobic atmosphere generated by Merck Anaerocult C gas generating packs at 37°C and shaking with 175 rpm overnight. On the following day, prior to the beginning of the experiment, the OD600 of the liquid culture was routinely below 1, in mid-exponential growth phase.
Next, 200 µl of the bacterial suspension were added per well of a 24-well-plate (Greiner Cellstar #662160) diluted to an initial OD600 of 0.07. Compounds (in DMSO) were added to the sample wells in duplicates in a serial dilution of starting at an upper limit of 256 µg/ml. Pure DMSO was added to all wells for a concentration of 2% DMSO per well. The multiwell plate (with lid) was incubated inside of an incubation jar and a microaerobic atmosphere generated by Merck Anaerocult C sachets at 37°C and shaking with 175 rpm for 24 h. For measurement, the duplicates were pooled after visual inspection, diluted 1:3 in medium and measured in plastic cuvettes as an OD at 600 nm. The detection limit of growth was defined as an OD600 of 0.05. […] This MIC determination method can also be downscaled, further automated and measured in 96- or 384-well plates in a micro-well plate incubator equipped with a gas chamber for microaerobic bacterial incubation.
For evaluation of the "minimum bactericidal concentration" (MBC), bacteria from the MIC experiment were streaked and plated at different serial dilutions on blood agar, including the lowest compound concentration where bacterial growth was still measurable by OD600 (OD600 ≥ 0.05), and three compound concentration levels above (if possible). The blood agar plates were incubated at 37°C in an […], either inside an incubation jar (Oxoid) with an Anaerocult C gas pack (Merck), or in an anaerobic cabinet aerated with a microaerobic gas mix as outlined above (Scholzen).
For evaluation of the MBC, bacteria from the MIC experiment were plated as streaks or in appropriate dilutions on Columbia blood agar plates, using inoculation loops. The plates were incubated at 37°C overnight to detect growth.

[1] = minimal toxic dose (MTD) testing in mice; format: in vivo; settings: oral, up to 60 mg/kg/day, listed as BL2
Method: The active compounds BL1 and BL2, which were chosen to be tested in a preclinical model, were initially tested for toxicity in the mouse model by […] (MTD) testing. The MTD testing (MTD Tox56000 protocol, Eurofins Panlabs) was performed according to international standards, as will be briefly outlined in the following: Three mice were dosed with the compounds at each intended dose. BL1 active compound was prepared in a suitable stock concentration in 5% DMSO, or 5% DMSO, 10% Solutol, 85% PBS (for the 40 and 60 mg/kg/day), and dosed at 10, 30, 40, or 60 mg/kg/day by intraperitoneal injection (125 µl for each dose). BL2 active compound was dosed orally, at 10 mg/kg/day, 30 mg/kg/day, or 60 mg/kg/day, diluted in 5% DMSO, 2.5% carboxy-methyl-cellulose (CMC), in PBS, also at 125 µl per dose per animal. The dosing in each case started with the lowest dose in the three animals, followed by observation for up to 72 h. Subsequently, the next higher dose was administered to a different set of three mice, etc.. Both compounds to be used subsequently for the in vivo therapeutic administration were verified to be non-toxic to mice below an administered dose of 40 mg/kg per day.

Question: Which MIC/MBC (H. pylori N6; H. pylori) does the source give for Cn1c(CSC(=N)N)c(Cl)c(=O)n1-c1ccccc1 [Active 2] here?
Answer: > 256 µg/mL

Question: What about the MIC (H. pylori N6; Helicobacter pylori, N6) of the same compound?
Answer: > 256 µg/mL

Question: And the “classical antibacterial activity (growth / metabolic inhibition) against H. pylori” value (H. pylori N6)?
Answer: did not inhibit growth or metabolic activity of H. pylori

Question: And the “classical antibacterial activity (growth / metabolic inhibition) against H. pylori” value (H. pylori N6; listed as BL2)?
Answer: not active against H. pylori in a classical antibacterial (antibiotic) manner

Question: And the “toxicity (MTD testing)” value [1]?
Answer: did not show any toxicity; also recorded: not toxic
